molecular target: TARP γ8 dependent AMPA receptor (GluA1o-g8 fusion channel) (Homo sapiens (Human), UniProt P42261+Q8WXS5); experiment: Calcium flux assay (FLIPR), HEK293 cells expressing GRIA1o-CACNG8 fusion; assay type: cell-based; conditions: inhibition of calcium flux after 15 μM glutamate, read-out: GluR1-γ8 pIC50 (converted)
Text: This assay was used to test compounds for their ability to inhibit TARP γ8 dependent AMPA receptor activity.
An in vitro assay was used to determine the potency of test compounds as inhibitors of the glutamate response of the channel formed by GluA1o-g8. To ensure a 1:1 stoichiometry of GluA1o and g8 subunits in the expressed channel, a fusion of the cDNAs for GRIA1o and CACNG8 was used. […] A clonal cell line in HEK293 cells stably expressing this construct, with a geneticin selection marker, was generated for use in this assay. Cell expressing the GRIAlo-CACNG8 fusion construct were grown in a monolayer in 96- or 384-well microtiter plates. […] The cells were then loaded with a calcium-sensitive dye (Calcium-5 or Calcium-6, Molecular Devices) and the test compounds at a range of concentrations.
The fluorescence in each well was normalized to the fluorescence of negative and positive control wells. […] The responses to glutamate as functions of the test compound concentrations were fitted to a four-parameter logistic function. The fitted parameter corresponding to the midpoint was taken to be the potency of inhibition of the compound.

Chain of TARP γ8 dependent AMPA receptor (GluA1o-g8 fusion channel) (P42261 other isoform, or with tags, fused parts or gaps): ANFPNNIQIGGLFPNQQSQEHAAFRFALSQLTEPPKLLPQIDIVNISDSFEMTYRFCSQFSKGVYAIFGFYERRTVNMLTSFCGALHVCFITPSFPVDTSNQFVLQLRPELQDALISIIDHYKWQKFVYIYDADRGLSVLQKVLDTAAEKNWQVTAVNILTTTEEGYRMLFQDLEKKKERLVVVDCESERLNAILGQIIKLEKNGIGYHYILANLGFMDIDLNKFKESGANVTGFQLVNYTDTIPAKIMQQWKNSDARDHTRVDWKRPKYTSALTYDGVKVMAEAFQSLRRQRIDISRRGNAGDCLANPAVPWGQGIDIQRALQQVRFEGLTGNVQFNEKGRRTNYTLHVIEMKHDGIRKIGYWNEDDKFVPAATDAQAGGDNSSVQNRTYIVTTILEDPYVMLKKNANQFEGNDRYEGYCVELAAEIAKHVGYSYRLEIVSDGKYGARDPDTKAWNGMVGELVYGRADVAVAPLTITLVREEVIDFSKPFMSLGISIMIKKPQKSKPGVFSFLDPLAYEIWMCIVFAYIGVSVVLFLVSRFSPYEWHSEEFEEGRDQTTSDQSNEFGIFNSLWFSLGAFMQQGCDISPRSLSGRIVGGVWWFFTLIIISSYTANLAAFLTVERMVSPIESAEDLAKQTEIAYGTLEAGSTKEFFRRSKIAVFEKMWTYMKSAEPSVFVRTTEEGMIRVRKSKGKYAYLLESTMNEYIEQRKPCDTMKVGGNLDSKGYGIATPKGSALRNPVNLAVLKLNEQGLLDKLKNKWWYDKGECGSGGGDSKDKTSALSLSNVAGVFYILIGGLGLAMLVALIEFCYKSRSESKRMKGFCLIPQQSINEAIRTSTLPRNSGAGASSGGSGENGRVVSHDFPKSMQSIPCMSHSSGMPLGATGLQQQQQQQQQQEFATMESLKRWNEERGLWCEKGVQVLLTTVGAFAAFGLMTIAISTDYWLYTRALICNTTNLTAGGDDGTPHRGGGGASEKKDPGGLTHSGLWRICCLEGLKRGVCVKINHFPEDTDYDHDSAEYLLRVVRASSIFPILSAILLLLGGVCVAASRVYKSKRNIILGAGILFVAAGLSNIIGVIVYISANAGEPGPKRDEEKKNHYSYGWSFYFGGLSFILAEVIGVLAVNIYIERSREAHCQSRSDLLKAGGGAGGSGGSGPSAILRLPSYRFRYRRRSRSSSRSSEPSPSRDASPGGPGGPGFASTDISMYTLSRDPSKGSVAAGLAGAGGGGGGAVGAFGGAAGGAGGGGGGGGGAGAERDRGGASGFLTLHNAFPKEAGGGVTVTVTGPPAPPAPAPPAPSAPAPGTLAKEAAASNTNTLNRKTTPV

Row | SMILES | IC50
1 | O=c1[nH]c2ccc(-c3cccc(OCC4CC4(F)F)c3Cl)cc2[nH]1 (racemic) [Example 111, (±)-5-[2-Chloro-3-[(2,2-difluorocyclopropyl)methoxy]phenyl]-1,3-dihydrobenzimidazol-2-one] | 50.1 nM
2 | O=c1[nH]c2ccc(-c3cccc(CN4CCOC(C(F)(F)F)C4)c3Cl)cc2[nH]1 (racemic) [Example 144, (±)-5-[2-Chloro-3-[[2-(trifluoromethyl)morpholin-4-yl]methyl]phenyl]-1,3-dihydrobenzimidazol-2-one] | 126 nM
3 | Cc1c(CN2CCOC(C)C2)cccc1-c1ccc2[nH]c(=O)[nH]c2c1 (racemic) [Example 150, (±)-5-[2-Methyl-3-[(2-methylmorpholin-4-yl)methyl]phenyl]-1,3-dihydrobenzimidazol-2-one] | 200 nM
4 | Cc1c(CN2CCOC(C(F)(F)F)C2)cccc1-c1ccc2[nH]c(=O)[nH]c2c1 (racemic) [Example 151, (±)-5-[2-Methyl-3-[[2-(trifluoromethyl)morpholin-4-yl]methyl]phenyl]-1,3-dihydrobenzimidazol-2-one] | 31.6 nM
5 | Cc1c(CN2CCOCC2C)cccc1-c1ccc2[nH]c(=O)[nH]c2c1 (stereo in doubt) [Example 152, (3R)-5-[2-Methyl-3-[[3-methylmorpholin-4-yl]methyl]phenyl]-1,3-dihydrobenzimidazol-2-one] | 1000 nM
6 | Cc1c(CN2CCOCC2C)cccc1-c1ccc2[nH]c(=O)[nH]c2c1 (stereo in doubt) [Example 153, (3S)-5-[2-Methyl-3-[[3-methylmorpholin-4-yl]methyl]phenyl]-1,3-dihydrobenzimidazol-2-one] | 316 nM
7 | Cc1c(CN2CC[C@H](O)[C@H](F)C2)cccc1-c1ccc2[nH]c(=O)[nH]c2c1 (stereo in doubt) [Example 159, (3R,4S)-5-[3-[[3-Fluoro-4-hydroxy-1-piperidyl]methyl]-2-methyl-phenyl]-1,3-dihydrobenzimidazol-2-one] | 6310 nM
8 | Cc1cccc(-c2ccc3[nH]c(=O)[nH]c3c2)c1C [Example 1, 5-(2,3-Dimethylphenyl)-1,3-dihydrobenzimidazol-2-one] | 251 nM
9 | Cc1ccccc1-c1ccc2[nH]c(=O)[nH]c2c1 [Example 3, 5-(o-Tolyl)-1,3-dihydrobenzimidazol-2-one] | 1260 nM
10 | O=c1[nH]c2ccc(-c3ccccc3-c3ccccc3)cc2[nH]1 [Example 5, 5-(2-Phenylphenyl)-1,3-dihydrobenzimidazol-2-one] | 100 nM
11 | CC(C)(C)OC(=O)N1CCN(c2ccccc2-c2ccc3[nH]c(=O)[nH]c3c2)CC1 [Example 9, tert-Butyl 4-[2-(2-oxo-1,3-dihydrobenzimidazol-5-yl)phenyl]piperazine-1-carboxylate] | 794 nM
12 | Cc1ccc(Cl)cc1-c1ccc2[nH]c(=O)[nH]c2c1 [Example 10, 5-(5-Chloro-2-methyl-phenyl)-1,3-dihydrobenzimidazol-2-one] | 251 nM
13 | O=c1[nH]c2ccc(-c3ccccc3OCC3CC3)cc2[nH]1 [Example 13, 5-[2-(Cyclopropylmethoxy)phenyl]-1,3-dihydrobenzimidazol-2-one] | 398 nM
14 | Cc1ccc(OCC(C)C)c(-c2ccc3[nH]c(=O)[nH]c3c2)c1 [Example 15, 5-(2-Isobutoxy-5-methyl-phenyl)-1,3-dihydrobenzimidazol-2-one] | 31.6 nM
15 | O=c1[nH]c2ccc(-c3ccccc3Cl)cc2[nH]1 [Example 17, 5-(2-Chlorophenyl)-1,3-dihydrobenzimidazol-2-one] | 631 nM
16 | O=c1[nH]c2ccc(-c3cc(Cl)ccc3Cl)cc2[nH]1 [Example 18, 5-(2,5-Dichlorophenyl)-1,3-dihydrobenzimidazol-2-one] | 251 nM
17 | Cc1ccc(Cl)c(-c2ccc3[nH]c(=O)[nH]c3c2)c1 [Example 19, 5-(2-Chloro-5-methyl-phenyl)-1,3-dihydrobenzimidazol-2-one] | 200 nM
18 | Cc1ccc(C)c(-c2ccc3[nH]c(=O)[nH]c3c2)c1 [Example 21, 5-(2,5-Dimethylphenyl)-1,3-dihydrobenzimidazol-2-one] | 398 nM
19 | Cc1ccc(Cl)c(-c2ccc3[nH]c(=O)[nH]c3c2)c1Cl [Example 23, 5-(2,6-Dichloro-3-methyl-phenyl)-1,3-dihydrobenzimidazol-2-one] | 15.8 nM
20 | O=c1[nH]c2ccc(-c3ccccc3Oc3ccccc3)cc2[nH]1 [Example 24, 5-(2-Phenoxyphenyl)-1,3-dihydrobenzimidazol-2-one] | 501 nM
21 | O=c1[nH]c2ccc(-c3c(F)cccc3OCc3ccccc3)cc2[nH]1 [Example 26, 5-(2-Benzyloxy-6-fluoro-phenyl)-1,3-dihydrobenzimidazol-2-one] | 100 nM

More lines, now with the values ahead:

Row | IC50 | SMILES
22 | 20 nM | O=c1[nH]c2ccc(-c3c(Cl)cccc3OCC3CC3(F)F)cc2[nH]1 (racemic) [Example 93, (±)-5-[2-Chloro-6-[(2,2-difluorocyclopropyl)methoxy]phenyl]-1,3-dihydrobenzimidazol-2-one]
23 | 31.6 nM | CC(Oc1cccc(Cl)c1-c1ccc2[nH]c(=O)[nH]c2c1)C(F)(F)F (racemic) [Example 118, (±)-5-[2-Chloro-6-(2,2,2-trifluoro-1-methyl-ethoxy)phenyl]-1,3-dihydrobenzimidazol-2-one]
24 | 158 nM | COc1cccc(OC(C)C(F)(F)F)c1-c1ccc2[nH]c(=O)[nH]c2c1 (racemic) [Example 121, (±)-5-[2-Methoxy-6-(2,2,2-trifluoro-1-methyl-ethoxy)phenyl]-1,3-dihydrobenzimidazol-2-one]
25 | 12.6 nM | CC(C#N)c1cccc(Cl)c1-c1ccc2[nH]c(=O)[nH]c2c1 (racemic) [Example 126, (±)-2-[3-Chloro-2-(2-oxo-1,3-dihydrobenzimidazol-5-yl)phenyl]propanenitrile]
26 | 50.1 nM | C[C@@H](Oc1cccc(Cl)c1-c1ccc2[nH]c(=O)[nH]c2c1)C(F)(F)F (single isomer, unassigned) [Example 119, (R*)-5-[2-Chloro-6-(2,2,2-trifluoro-1-methyl-ethoxy)phenyl]-1,3-dihydrobenzimidazol-2-one]
27 | 79.4 nM | C[C@H](Oc1cccc(Cl)c1-c1ccc2[nH]c(=O)[nH]c2c1)C(F)(F)F (single isomer, unassigned) [Example 120, (S*)-5-[2-Chloro-6-(2,2,2-trifluoro-1-methyl-ethoxy)phenyl]-1,3-dihydrobenzimidazol-2-one]
28 | 501 nM | O=c1[nH]c2ccc(-c3ccccc3C(F)(F)F)cc2[nH]1 [Example 4, 5-[2-(Trifluoromethyl)phenyl]-1,3-dihydrobenzimidazol-2-one]
29 | 316 nM | CC(C)c1ccccc1-c1ccc2[nH]c(=O)[nH]c2c1 [Example 6, 5-(2-Isopropylphenyl)-1,3-dihydrobenzimidazol-2-one]
30 | 1260 nM | COc1cccc(OC)c1-c1ccc2[nH]c(=O)[nH]c2c1 [Example 7, 5-(2,6-Dimethoxyphenyl)-1,3-dihydrobenzimidazol-2-one]
31 | 2000 nM | CC(C)Oc1ccccc1-c1ccc2[nH]c(=O)[nH]c2c1 [Example 8, 5-(2-Isopropoxyphenyl)-1,3-dihydrobenzimidazol-2-one]
32 | 501 nM | CC(C)Oc1cccc(F)c1-c1ccc2[nH]c(=O)[nH]c2c1 [Example 11, 5-(2-Fluoro-6-isopropoxy-phenyl)-1,3-dihydrobenzimidazol-2-one]
33 | 631 nM | O=c1[nH]c2ccc(-c3c(Cl)cccc3C(F)(F)F)cc2[nH]1 [Example 12, 5-[2-Chloro-6-(trifluoromethyl)phenyl]-1,3-dihydrobenzimidazol-2-one]
34 | 316 nM | CC(C)Oc1ccc(Cl)cc1-c1ccc2[nH]c(=O)[nH]c2c1 [Example 16, 5-(5-Chloro-2-isopropoxy-phenyl)-1,3-dihydrobenzimidazol-2-one]
35 | 251 nM | COc1cccc(Cl)c1-c1ccc2[nH]c(=O)[nH]c2c1 [Example 20, 5-(2-Chloro-6-methoxy-phenyl)-1,3-dihydrobenzimidazol-2-one]
36 | 316 nM | CC(C)Oc1ccc(C(F)(F)F)cc1-c1ccc2[nH]c(=O)[nH]c2c1 [Example 22, 5-[2-Isopropoxy-5-(trifluoromethyl)phenyl]-1,3-dihydrobenzimidazol-2-one]
37 | 251 nM | O=c1[nH]c2ccc(-c3cc(C(F)(F)F)ccc3Cl)cc2[nH]1 [Example 25, 5-[2-Chloro-5-(trifluoromethyl)phenyl]-1,3-dihydrobenzimidazol-2-one]
38 | 1580 nM | O=Cc1cccc(F)c1-c1ccc2[nH]c(=O)[nH]c2c1 [Example 27, 3-Fluoro-2-(2-oxo-1,3-dihydrobenzimidazol-5-yl)benzaldehyde]
39 | 79.4 nM | COc1cccc(OC(C)C)c1-c1ccc2[nH]c(=O)[nH]c2c1 [Example 28, 5-(2-Isopropoxy-6-methoxy-phenyl)-1,3-dihydrobenzimidazol-2-one]
40 | 31.6 nM | O=c1[nH]c2ccc(-c3cccc(Cl)c3OC(F)(F)F)cc2[nH]1 [Example 29, 5-[3-Chloro-2-(trifluoromethoxy)phenyl]-1,3-dihydrobenzimidazol-2-one]
41 | 1580 nM | O=c1[nH]c2ccc(-c3ccc(OC(F)(F)F)cc3Cl)cc2[nH]1 [Example 30, 5-[2-Chloro-4-(trifluoromethoxy)phenyl]-1,3-dihydrobenzimidazol-2-one]
42 | 316 nM | COc1cc(OC(F)(F)F)ccc1-c1ccc2[nH]c(=O)[nH]c2c1 [Example 33, 5-[2-Methoxy-4-(trifluoromethoxy)phenyl]-1,3-dihydrobenzimidazol-2-one]
